Laboratory results reported in ChEMBL document CHEMBL5465560, “Selectivity Literature for EUbOPEN Chemogenomic Library” (2024).

What was measured:
[1] = target: T1, Megakaryocyte-associated tyrosine-protein kinase (Homo sapiens) (UniProt P42679); experiment: Selectivity interaction (KinomeScan (DiscoverX)) EUB0001049a MATK; conditions: at 1 µM
T1 sequence (whole entry): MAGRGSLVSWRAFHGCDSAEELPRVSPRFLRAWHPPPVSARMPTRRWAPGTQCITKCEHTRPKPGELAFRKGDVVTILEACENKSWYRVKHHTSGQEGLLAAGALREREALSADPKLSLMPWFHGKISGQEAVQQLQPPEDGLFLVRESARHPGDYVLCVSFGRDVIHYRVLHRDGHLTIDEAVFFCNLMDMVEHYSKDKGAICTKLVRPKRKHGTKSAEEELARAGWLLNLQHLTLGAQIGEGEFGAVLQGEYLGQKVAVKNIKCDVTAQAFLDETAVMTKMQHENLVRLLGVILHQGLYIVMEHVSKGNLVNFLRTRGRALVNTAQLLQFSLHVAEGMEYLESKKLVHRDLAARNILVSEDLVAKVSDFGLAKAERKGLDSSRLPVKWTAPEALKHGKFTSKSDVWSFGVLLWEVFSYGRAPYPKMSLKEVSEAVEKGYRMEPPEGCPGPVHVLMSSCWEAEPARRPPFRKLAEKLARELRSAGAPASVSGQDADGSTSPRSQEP

[2] = tested on: Epidermal growth factor receptor (Homo sapiens), P00533 [UNDEFINED MUTATION]; experiment: Selectivity interaction (KinomeScan (DiscoverX)) EUB0001079a EGFR; conditions: at 1 µM
Chain of Epidermal growth factor receptor (Homo sapiens), P00533 [UNDEFINED MUTATION] (P00533 whole entry, looked up, change not shown): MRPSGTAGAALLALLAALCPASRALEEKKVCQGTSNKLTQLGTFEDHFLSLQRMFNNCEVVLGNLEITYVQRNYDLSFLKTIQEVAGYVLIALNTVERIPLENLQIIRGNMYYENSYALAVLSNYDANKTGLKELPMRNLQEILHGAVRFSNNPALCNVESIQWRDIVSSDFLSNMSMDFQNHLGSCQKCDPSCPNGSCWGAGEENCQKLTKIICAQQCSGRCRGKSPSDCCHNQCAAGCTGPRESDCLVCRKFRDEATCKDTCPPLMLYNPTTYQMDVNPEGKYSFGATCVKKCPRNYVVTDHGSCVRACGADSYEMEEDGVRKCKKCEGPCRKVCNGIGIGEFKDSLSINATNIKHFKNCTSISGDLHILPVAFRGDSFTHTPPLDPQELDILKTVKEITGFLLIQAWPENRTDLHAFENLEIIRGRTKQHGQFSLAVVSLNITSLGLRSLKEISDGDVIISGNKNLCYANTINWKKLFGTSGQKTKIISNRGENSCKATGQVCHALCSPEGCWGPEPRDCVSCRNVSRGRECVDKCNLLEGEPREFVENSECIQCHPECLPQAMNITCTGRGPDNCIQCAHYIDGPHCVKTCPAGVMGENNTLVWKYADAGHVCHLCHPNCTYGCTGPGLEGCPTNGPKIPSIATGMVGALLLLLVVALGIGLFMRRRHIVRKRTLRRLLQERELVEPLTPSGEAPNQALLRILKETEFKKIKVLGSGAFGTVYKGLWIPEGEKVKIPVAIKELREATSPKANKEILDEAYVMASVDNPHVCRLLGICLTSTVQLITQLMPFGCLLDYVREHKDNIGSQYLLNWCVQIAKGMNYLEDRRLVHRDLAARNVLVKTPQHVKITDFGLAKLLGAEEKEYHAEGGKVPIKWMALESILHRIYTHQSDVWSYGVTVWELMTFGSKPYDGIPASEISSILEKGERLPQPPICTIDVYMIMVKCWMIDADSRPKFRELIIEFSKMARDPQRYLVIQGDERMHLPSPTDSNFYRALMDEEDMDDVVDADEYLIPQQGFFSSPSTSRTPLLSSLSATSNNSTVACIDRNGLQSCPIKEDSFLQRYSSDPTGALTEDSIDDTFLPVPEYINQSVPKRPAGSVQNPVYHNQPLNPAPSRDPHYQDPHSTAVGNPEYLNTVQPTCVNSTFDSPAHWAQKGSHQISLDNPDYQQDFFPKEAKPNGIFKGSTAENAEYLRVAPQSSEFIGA

[3] = target: T2, Ephrin type-A receptor 1 (Homo sapiens) (UniProt P21709); conditions: at 10 µM
T2 sequence (whole entry): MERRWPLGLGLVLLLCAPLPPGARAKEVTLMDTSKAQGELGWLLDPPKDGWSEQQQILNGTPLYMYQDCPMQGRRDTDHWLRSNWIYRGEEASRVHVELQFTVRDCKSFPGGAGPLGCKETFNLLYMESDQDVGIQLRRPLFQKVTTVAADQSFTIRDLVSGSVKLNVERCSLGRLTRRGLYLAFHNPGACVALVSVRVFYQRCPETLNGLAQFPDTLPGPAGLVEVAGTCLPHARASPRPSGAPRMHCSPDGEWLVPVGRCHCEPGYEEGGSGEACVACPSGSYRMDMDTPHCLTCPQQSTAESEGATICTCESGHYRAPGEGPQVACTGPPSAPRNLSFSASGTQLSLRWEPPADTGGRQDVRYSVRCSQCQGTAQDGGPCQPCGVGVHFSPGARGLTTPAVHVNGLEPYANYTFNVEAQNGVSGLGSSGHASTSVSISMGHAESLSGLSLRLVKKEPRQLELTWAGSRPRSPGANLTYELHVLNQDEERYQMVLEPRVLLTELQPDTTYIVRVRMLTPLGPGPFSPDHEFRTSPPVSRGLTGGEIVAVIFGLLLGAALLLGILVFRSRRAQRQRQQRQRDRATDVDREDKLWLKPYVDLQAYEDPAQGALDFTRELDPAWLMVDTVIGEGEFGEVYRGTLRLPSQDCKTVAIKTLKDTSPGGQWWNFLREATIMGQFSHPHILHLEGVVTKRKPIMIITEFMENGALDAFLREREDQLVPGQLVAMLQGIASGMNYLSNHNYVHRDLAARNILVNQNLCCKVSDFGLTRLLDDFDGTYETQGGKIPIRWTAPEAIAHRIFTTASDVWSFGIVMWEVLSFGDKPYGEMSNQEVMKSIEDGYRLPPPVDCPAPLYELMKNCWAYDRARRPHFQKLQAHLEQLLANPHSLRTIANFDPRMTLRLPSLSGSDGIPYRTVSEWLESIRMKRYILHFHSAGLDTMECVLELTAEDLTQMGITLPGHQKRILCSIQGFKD

[4] = target: Ribosomal protein S6 kinase alpha-2 (Homo sapiens) (UniProt Q15349); experiment: Selectivity interaction (ActivX KiNativ screen (kinase selectivity in THP-1 cell lysates)) EUB0000639a RPS6KA2; type: subcellular; conditions: lysate
Chain of Ribosomal protein S6 kinase alpha-2 (Homo sapiens) (Q15349 whole entry): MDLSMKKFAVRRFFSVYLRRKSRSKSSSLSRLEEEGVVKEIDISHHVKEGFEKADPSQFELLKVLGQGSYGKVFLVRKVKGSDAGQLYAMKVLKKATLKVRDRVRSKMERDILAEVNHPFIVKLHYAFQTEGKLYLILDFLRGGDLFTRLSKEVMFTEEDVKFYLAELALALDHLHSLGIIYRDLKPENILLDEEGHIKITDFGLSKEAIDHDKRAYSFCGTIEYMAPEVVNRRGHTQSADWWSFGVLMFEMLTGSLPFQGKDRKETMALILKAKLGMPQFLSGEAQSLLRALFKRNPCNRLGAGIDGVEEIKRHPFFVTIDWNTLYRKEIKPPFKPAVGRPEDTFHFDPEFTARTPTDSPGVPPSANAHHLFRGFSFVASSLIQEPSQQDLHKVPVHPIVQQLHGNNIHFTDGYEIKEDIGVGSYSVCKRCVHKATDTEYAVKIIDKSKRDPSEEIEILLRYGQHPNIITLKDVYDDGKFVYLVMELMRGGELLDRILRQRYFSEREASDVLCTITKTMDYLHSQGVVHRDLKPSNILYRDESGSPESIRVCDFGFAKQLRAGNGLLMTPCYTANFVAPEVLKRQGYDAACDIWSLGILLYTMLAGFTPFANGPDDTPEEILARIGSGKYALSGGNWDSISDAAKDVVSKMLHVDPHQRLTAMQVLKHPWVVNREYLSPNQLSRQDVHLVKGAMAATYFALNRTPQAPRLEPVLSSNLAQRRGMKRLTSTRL

[5] = target: Tyrosine-protein kinase JAK1 (Homo sapiens, UniProt P23458); experiment: Selectivity interaction (KinomeScan (DiscoverX)) EUB0000595a JAK1; conditions: at 10 µM
Chain of Tyrosine-protein kinase JAK1 (P23458 whole entry): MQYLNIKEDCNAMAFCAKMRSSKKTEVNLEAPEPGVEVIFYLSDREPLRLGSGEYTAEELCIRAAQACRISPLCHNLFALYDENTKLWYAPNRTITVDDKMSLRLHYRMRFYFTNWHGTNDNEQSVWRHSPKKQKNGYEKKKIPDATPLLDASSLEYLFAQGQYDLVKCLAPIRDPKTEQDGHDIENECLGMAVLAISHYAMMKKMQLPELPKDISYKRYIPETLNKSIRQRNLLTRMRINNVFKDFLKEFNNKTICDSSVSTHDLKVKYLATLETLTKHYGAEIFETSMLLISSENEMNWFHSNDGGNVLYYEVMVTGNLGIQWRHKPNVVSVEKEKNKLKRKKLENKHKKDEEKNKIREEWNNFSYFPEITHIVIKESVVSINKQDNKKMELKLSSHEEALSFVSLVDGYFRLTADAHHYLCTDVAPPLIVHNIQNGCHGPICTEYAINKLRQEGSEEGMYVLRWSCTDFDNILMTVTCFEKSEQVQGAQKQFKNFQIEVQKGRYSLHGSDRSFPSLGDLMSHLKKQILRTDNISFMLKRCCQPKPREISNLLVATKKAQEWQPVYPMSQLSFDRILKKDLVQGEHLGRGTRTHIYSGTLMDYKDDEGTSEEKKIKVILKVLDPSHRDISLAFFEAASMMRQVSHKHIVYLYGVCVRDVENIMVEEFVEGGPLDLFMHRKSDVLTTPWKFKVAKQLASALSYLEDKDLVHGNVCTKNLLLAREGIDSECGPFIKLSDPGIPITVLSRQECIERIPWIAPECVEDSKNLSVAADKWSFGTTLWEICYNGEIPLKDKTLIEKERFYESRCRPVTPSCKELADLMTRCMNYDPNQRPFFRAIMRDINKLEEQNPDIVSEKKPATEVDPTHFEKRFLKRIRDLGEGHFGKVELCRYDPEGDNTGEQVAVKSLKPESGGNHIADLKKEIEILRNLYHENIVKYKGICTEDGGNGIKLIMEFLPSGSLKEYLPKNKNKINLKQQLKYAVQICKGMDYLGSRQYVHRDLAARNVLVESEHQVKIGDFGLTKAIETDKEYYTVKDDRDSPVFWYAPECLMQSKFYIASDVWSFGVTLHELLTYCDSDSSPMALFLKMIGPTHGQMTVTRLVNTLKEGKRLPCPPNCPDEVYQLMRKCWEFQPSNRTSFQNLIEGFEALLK

[6] = target: T3, Mitogen-activated protein kinase 13 (Homo sapiens) (UniProt O15264); experiment: Selectivity interaction (Ambit KINOMEscan and KiNATiv profiling in Jurkat cells) EUB0000090b MAPK13; type: cell-based; conditions: at 1 µM
T3 sequence (whole entry): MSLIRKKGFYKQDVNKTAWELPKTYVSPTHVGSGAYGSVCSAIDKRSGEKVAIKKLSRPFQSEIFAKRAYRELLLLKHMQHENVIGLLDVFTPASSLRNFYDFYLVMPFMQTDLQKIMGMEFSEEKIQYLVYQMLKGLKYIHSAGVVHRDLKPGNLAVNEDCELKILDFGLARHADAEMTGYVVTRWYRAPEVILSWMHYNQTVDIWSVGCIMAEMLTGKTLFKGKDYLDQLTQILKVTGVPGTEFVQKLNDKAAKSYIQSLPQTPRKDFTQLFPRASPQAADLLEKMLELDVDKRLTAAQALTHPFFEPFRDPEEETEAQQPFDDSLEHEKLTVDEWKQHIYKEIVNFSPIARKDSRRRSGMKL

[7] = target: 5'-AMP-activated protein kinase catalytic subunit alpha-1 (Homo sapiens, UniProt Q13131); experiment: Selectivity interaction (KinomeScan (DiscoverX)) EUB0001619a PRKAA1; conditions: at 1 µM
Chain of 5'-AMP-activated protein kinase catalytic subunit alpha-1 (Q13131 whole entry, looked up): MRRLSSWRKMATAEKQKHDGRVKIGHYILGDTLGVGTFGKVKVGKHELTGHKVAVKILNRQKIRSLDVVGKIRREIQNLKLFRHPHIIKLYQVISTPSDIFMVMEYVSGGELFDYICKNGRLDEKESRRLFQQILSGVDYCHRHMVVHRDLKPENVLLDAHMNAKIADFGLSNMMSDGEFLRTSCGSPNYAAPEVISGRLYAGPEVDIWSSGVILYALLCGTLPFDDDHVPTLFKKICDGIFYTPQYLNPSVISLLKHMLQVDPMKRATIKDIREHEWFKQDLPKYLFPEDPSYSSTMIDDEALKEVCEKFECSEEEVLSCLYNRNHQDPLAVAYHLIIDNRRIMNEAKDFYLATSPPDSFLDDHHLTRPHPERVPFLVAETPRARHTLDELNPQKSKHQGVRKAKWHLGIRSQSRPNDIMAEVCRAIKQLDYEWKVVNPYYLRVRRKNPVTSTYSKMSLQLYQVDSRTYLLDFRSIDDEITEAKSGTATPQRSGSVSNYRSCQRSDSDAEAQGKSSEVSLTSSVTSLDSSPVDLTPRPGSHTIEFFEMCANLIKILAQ

[8] = target: Tyrosine-protein kinase SYK (Homo sapiens, UniProt P43405); experiment: Selectivity interaction (KinomeScan (DiscoverX)) EUB0001619a SYK; conditions: at 1 µM

Compound: COc1cc(Nc2nc(C)cc(-c3cnn4nc(OC)ccc34)n2)cc(C(F)(F)F)c1
- % of control [1]: 100%

Compound: Nc1cnc(N2CCc3cc(S(=O)(=O)Nc4c(F)cc(Cl)cc4F)cc(N4CCCC4=O)c32)nc1 [TP-020n]
- % of control [2]: 100%

Compound: CCN(CC)CCCCNc1ncc2cc(-c3cc(OC)cc(OC)c3)c(NC(=O)NC(C)(C)C)nc2n1
- % of control [3]: 100%

Compound: CC[C@@H]1[C@H](F)C(=O)N[C@@H]1COc1nccc2cc(C(N)=O)c(OC)cc12 [ZIMLOVISERTIB]
- % of inhibition ([4]; at 0.01 µM): 16.9%
- % of inhibition ([4]; at 0.04 µM): 12.4%
- % of inhibition ([4]; at 0.2 µM): 10.3%
- % of inhibition ([4]; at 1 µM): 8.6%
- % of inhibition ([4]; at 5 µM): 11.7%

Compound: COCC(=O)NC/C=C/c1ccc2ncnc(Nc3ccc(Oc4ccc(C)nc4)c(C)c3)c2c1 [CP-724714]
- % of control [5]: 100%

Compound: CN(C)C/C=C/C(=O)Nc1ccc(C(=O)N2CCCC(Nc3ncc(Cl)c(-c4c[nH]c5ccccc45)n3)C2)cc1 (configuration not stated)
- % of control [6]: 85%

Compound: N#Cc1cccc(-c2c[nH]c3ncnc(N4CCOCC4)c23)c1
- % of control [7]: 71%
- % of control [8]: 100%
